molecular target: His-tagged recombinant human Gal-3 (hGal-3) (Homo sapiens (Human), UniProt P17931); assay: Gal-3 HTRF assay (His-tagged hGal-3 binding to B-ASF); conditions: HTRF, hGal-3 15 nM, B-ASF 15 nM; read-out: hGal-3 IC50;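 also: compounds preincubated 30 min with hGal-3, then 1 h with B-ASF, detection via terbium anti-His antibody and streptavidin d2. Control with B-ASF counts as full signal, omitting B-ASF as background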
Sequence (P17931 whole entry): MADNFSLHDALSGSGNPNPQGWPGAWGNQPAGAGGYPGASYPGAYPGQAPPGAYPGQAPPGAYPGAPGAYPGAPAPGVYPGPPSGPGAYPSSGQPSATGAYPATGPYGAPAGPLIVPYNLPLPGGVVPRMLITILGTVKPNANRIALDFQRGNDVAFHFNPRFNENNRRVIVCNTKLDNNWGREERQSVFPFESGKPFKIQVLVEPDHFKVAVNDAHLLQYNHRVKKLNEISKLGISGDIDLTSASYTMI

Row | SMILES | IC50
1 | OC[C@H]1O[C@@H](n2nncc2-c2ccccc2)[C@H](O)[C@@H](n2cc(-c3cc(F)c(F)c(F)c3)nn2)[C@H]1O [Example 3] | 617 nM
2 | OC[C@H]1O[C@@H](n2nncc2-c2ccc3c(c2)OCO3)[C@H](O)[C@@H](n2cc(-c3cc(F)c(F)c(F)c3)nn2)[C@H]1O [Example 4] | 386 nM
3 | OC[C@H]1O[C@@H](n2nncc2-c2ccc3[nH]ncc3c2)[C@H](O)[C@@H](n2cc(-c3cc(F)c(F)c(F)c3)nn2)[C@H]1O [Example 5] | 640 nM
4 | OC[C@H]1O[C@@H](n2nncc2-c2ccc3cn[nH]c3c2)[C@H](O)[C@@H](n2cc(-c3cc(F)c(F)c(F)c3)nn2)[C@H]1O [Example 6] | 494 nM
5 | OC[C@H]1O[C@@H](n2nncc2-c2ccc(Cl)cc2)[C@H](O)[C@@H](n2cc(-c3cc(F)c(F)c(F)c3)nn2)[C@H]1O [Example 7] | 329 nM
6 | Cc1nc2ccc(-c3cnnn3[C@@H]3O[C@H](CO)[C@H](O)[C@H](n4cc(-c5cc(F)c(F)c(F)c5)nn4)[C@H]3O)cc2s1 [Example 8] | 158 nM
7 | COc1cccc(-c2cnnn2[C@@H]2O[C@H](CO)[C@H](O)[C@H](n3cc(-c4cc(F)c(F)c(F)c4)nn3)[C@H]2O)c1 [Example 9] | 158 nM
8 | CC(C)(C)c1cnnn1[C@@H]1O[C@H](CO)[C@H](O)[C@H](n2cc(-c3cc(F)c(F)c(F)c3)nn2)[C@H]1O [Example 10] | 366 nM
9 | O=C(O)c1nnn([C@@H]2O[C@H](CO)[C@H](O)[C@H](n3cc(-c4cc(F)c(F)c(F)c4)nn3)[C@H]2O)c1-c1ccc(Cl)c(Cl)c1 [Example 11] | 184 nM
10 | CCO[C@@H]1[C@@H](n2cc(-c3cc(F)c(F)c(F)c3)nn2)[C@@H](O)[C@@H](CO)O[C@H]1n1nncc1-c1cccc(Cl)c1 [Example 12, (2R,3R,4S,5R,6R)-6-(5-(3-chlorophenyl)-1H-1,2,3-triazol-1-yl)-5-ethoxy-2-(hydroxymethyl)-4-(4-(3,4,5-trifluorophenyl)-1H-1,2,3-triazol-1-yl)tetrahydro-2H-pyran-3-ol] | 970 nM
11 | COCCO[C@@H]1[C@@H](n2cc(-c3cc(F)c(F)c(F)c3)nn2)[C@@H](O)[C@@H](CO)O[C@H]1n1nncc1-c1cccc(Cl)c1 [Example 13] | 571 nM
12 | O=C(O)CO[C@@H]1[C@@H](n2cc(-c3cc(F)c(F)c(F)c3)nn2)[C@@H](O)[C@@H](CO)O[C@H]1n1nncc1-c1cccc(Cl)c1 [Example 14] | 8430 nM
13 | OC[C@H]1O[C@@H](n2nncc2-c2ccc(Cl)c(Cl)c2)C[C@@H](n2cc(-c3cc(F)c(F)c(F)c3)nn2)[C@H]1O [Example 15, (2R,3R,4R,6R)-6-(5-(3,4-dichlorophenyl)-1H-1,2,3-triazol-1-yl)-2-(hydroxymethyl)-4-(4-(3,4,5-trifluorophenyl)-1H-1,2,3-triazol-1-yl)tetrahydro-2H-pyran-3-ol] | 880 nM
14 | COc1cccc(-c2cnnn2[C@H]2C[C@@H](n3cc(-c4cc(F)c(F)c(F)c4)nn3)[C@@H](O)[C@@H](CO)O2)c1 [Example 16] | 609 nM
15 | OC[C@H]1O[C@@H](n2nncc2-c2ccccc2)C[C@@H](n2cc(-c3cc(F)c(F)c(F)c3)nn2)[C@H]1O [Example 17] | 902 nM
16 | OC[C@H]1O[C@@H](n2nncc2-c2cccc(Cl)c2)[C@H](F)[C@@H](n2cc(-c3cc(F)c(F)c(F)c3)nn2)[C@H]1O [Example 18, (2R,3R,4S,5R,6R)-6-(5-(3-chlorophenyl)-1H-1,2,3-triazol-1-yl)-5-fluoro-2-(hydroxymethyl)-4-(4-(3,4,5-trifluorophenyl)-1H-1,2,3-triazol-1-yl)tetrahydro-2H-pyran-3-ol] | 1040 nM
17 | OC[C@H]1O[C@@H](c2ncnn2-c2ccccc2)[C@H](O)[C@@H](n2cc(-c3cc(F)c(F)c(F)c3)nn2)[C@H]1O [Example 20] | 708 nM
18 | OC[C@H]1O[C@@H](c2ncnn2-c2ccc(Cl)c(Cl)c2)[C@H](O)[C@@H](n2cc(-c3cc(F)c(F)c(F)c3)nn2)[C@H]1O [Example 21] | 79 nM

Row | SMILES | IC50
19 | OC[C@H]1O[C@@H](c2ncnn2Cc2cccc(Cl)c2)[C@H](O)[C@@H](n2cc(-c3cc(F)c(F)c(F)c3)nn2)[C@H]1O [Example 22] | 1110 nM
20 | COc1cccc(-n2ncnc2[C@@H]2O[C@H](CO)[C@H](O)[C@H](n3cc(-c4cc(F)c(F)c(F)c4)nn3)[C@H]2O)c1 [Example 23] | 150 nM
21 | OC[C@H]1O[C@@H](c2ncnn2-c2ccccc2Cl)[C@H](O)[C@@H](n2cc(-c3cc(F)c(F)c(F)c3)nn2)[C@H]1O [Example 24] | 480 nM
22 | OC[C@H]1O[C@@H](c2ncnn2-c2ccc(C(F)(F)F)cc2)[C@H](O)[C@@H](n2cc(-c3cc(F)c(F)c(F)c3)nn2)[C@H]1O [Example 25] | 560 nM
23 | Cc1cccc(-n2ncnc2[C@@H]2O[C@H](CO)[C@H](O)[C@H](n3cc(-c4cc(F)c(F)c(F)c4)nn3)[C@H]2O)c1 [Example 26] | 230 nM
24 | OC[C@H]1O[C@@H](c2ncnn2Cc2ccccc2)[C@H](O)[C@@H](n2cc(-c3cc(F)c(F)c(F)c3)nn2)[C@H]1O [Example 28] | 1470 nM
25 | OC[C@H]1O[C@@H](c2ncnn2-c2c(F)cccc2F)[C@H](O)[C@@H](n2cc(-c3cc(F)c(F)c(F)c3)nn2)[C@H]1O [Example 29] | 1560 nM
26 | O=C(O)c1cccc(-n2ncnc2[C@@H]2O[C@H](CO)[C@H](O)[C@H](n3cc(-c4cc(F)c(F)c(F)c4)nn3)[C@H]2O)c1 [Example 31] | 1040 nM
27 | O=C(O)c1ccc(-n2ncnc2[C@@H]2O[C@H](CO)[C@H](O)[C@H](n3cc(-c4cc(F)c(F)c(F)c4)nn3)[C@H]2O)cc1 [Example 32] | 590 nM
28 | O=C(O)c1ccccc1-n1ncnc1[C@@H]1O[C@H](CO)[C@H](O)[C@H](n2cc(-c3cc(F)c(F)c(F)c3)nn2)[C@H]1O [Example 33] | 790 nM
29 | O=[N+]([O-])c1cccc(-n2ncnc2[C@@H]2O[C@H](CO)[C@H](O)[C@H](n3cc(-c4cc(F)c(F)c(F)c4)nn3)[C@H]2O)c1 [Example 35] | 700 nM
30 | OC[C@H]1O[C@@H](c2ncnn2-c2cccc(C(F)(F)F)c2)[C@H](O)[C@@H](n2cc(-c3cc(F)c(F)c(F)c3)nn2)[C@H]1O [Example 36] | 220 nM
31 | OC[C@H]1O[C@@H](c2ncnn2-c2cc(F)cc(F)c2)[C@H](O)[C@@H](n2cc(-c3cc(F)c(F)c(F)c3)nn2)[C@H]1O [Example 37] | 210 nM
32 | OC[C@H]1O[C@@H](c2ncnn2-c2cccc(F)c2)[C@H](O)[C@@H](n2cc(-c3cc(F)c(F)c(F)c3)nn2)[C@H]1O [Example 38] | 390 nM
33 | Cc1ccc(-n2ncnc2[C@@H]2O[C@H](CO)[C@H](O)[C@H](n3cc(-c4cc(F)c(F)c(F)c4)nn3)[C@H]2O)cc1 [Example 39] | 550 nM
34 | OC[C@H]1O[C@@H](c2ncnn2-c2ccccc2F)[C@H](O)[C@@H](n2cc(-c3cc(F)c(F)c(F)c3)nn2)[C@H]1O [Example 40] | 1020 nM
35 | OC[C@H]1O[C@@H](c2ncnn2-c2cc(Cl)cc(Cl)c2)[C@H](O)[C@@H](n2cc(-c3cc(F)c(F)c(F)c3)nn2)[C@H]1O [Example 41] | 110 nM

same assay, conditions: read-out: hGal3 IC50

Row | SMILES | IC50
36 | CO[C@@H]1[C@@H](n2cc(-c3cc(F)c(F)c(F)c3)nn2)[C@@H](O)[C@@H](CO)O[C@H]1c1nncn1-c1ccc(Cl)c(Cl)c1 [Ex 283] | 80 nM
37 | Cn1nccc1[C@@H]1O[C@H](CO)[C@H](O)[C@H](n2cc(-c3cc(F)c(F)c(F)c3)nn2)[C@H]1O [Ex 286] | 10000 nM
38 | OC[C@H]1O[C@@H](c2oncc2-c2cccc(Cl)c2)[C@H](O)[C@@H](n2cc(-c3cc(F)c(F)c(F)c3)nn2)[C@H]1O [Ex 289] | 8100 nM

Reference: US11267811B2, “Small molecule inhibitors of galectin-3” (BRISTOL-MYERS SQUIBB COMPANY, priority 2017, dated 2022)
